# Results from ChEMBL document CHEMBL1201862, “PubChem BioAssay data set” (2004).
#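 1) Cells in 96-well plates. 2) Compound, 48 h, 5 concentrations. 3) Linear interpolation between surrounding doses. 4) Unreached endpoint = highest concentration. Abbreviation: GI50, concentration required for 50% inhibition of growth.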 The source made the active and inactive calls. Rule as the data show it: active = GI50 up to about 1.1 µM and inactive = higher.
# Legend:
# Test in all cases: inhibition of tumour cell growth, NCI panel, 48 h
# PC-3 = tested on: PC-3
# OVCAR-8 = tested on: OVCAR-8
# ACHN = tested on: ACHN
# HOP-62 = tested on: HOP-62
# OVCAR-3 = tested on: OVCAR-3
# SK-MEL-5 = tested on: SK-MEL-5
# U-251 = tested on: U-251
# HCC 2998 = tested on: HCC 2998
# MCF7 = tested on: MCF7
# TK-10 = tested on: TK-10
# NCI-H522 = tested on: NCI-H522
# IGROV-1 = tested on: IGROV-1
# HT-29 = tested on: HT-29
# SR = tested on: SR
# NCI-H460 = tested on: NCI-H460
# SF-268 = tested on: SF-268
# A549 = tested on: A549
# UACC-62 = tested on: UACC-62
# MDA-MB-435 = tested on: MDA-MB-435
# SF-539 = tested on: SF-539
# HCT-15 = tested on: HCT-15
# HOP-92 = tested on: HOP-92
# CCRF-CEM = tested on: CCRF-CEM
# K562 = tested on: K562
# SK-OV-3 = tested on: SK-OV-3
# NCI-H23 = tested on: NCI-H23
# BT-549 = tested on: BT-549
# MDA-MB-231 = tested on: MDA-MB-231
# NCI-H226 = tested on: NCI-H226
# CAKI-1 = tested on: CAKI-1
# RPMI-8226 = tested on: RPMI-8226
# HCT-116 = tested on: HCT-116
# Hs-578T = tested on: Hs-578T
# COLO 205 = tested on: COLO 205
# SF-295 = tested on: SF-295
# DU-145 = tested on: DU-145
# EKVX = tested on: EKVX
# MDA-N = tested on: MDA-N
# SN12C = tested on: SN12C
# SK-MEL-28 = tested on: SK-MEL-28
# M14 = tested on: M14
# UO-31 = tested on: UO-31
# SNB-75 = tested on: SNB-75
# RXF 393 = tested on: RXF 393
# OVCAR-4 = tested on: OVCAR-4
# SW-620 = tested on: SW-620
# Malme-3M = tested on: Malme-3M
# HL-60 = tested on: HL-60
# SK-MEL-2 = tested on: SK-MEL-2
# SNB-19 = tested on: SNB-19
# LOX IMVI = tested on: LOX IMVI
# 786-0 = tested on: 786-0
# KM12 = tested on: KM12
# NCI/ADR-RES = tested on: NCI/ADR-RES
# UACC-257 = tested on: UACC-257
# OVCAR-5 = tested on: OVCAR-5
# MOLT-4 = tested on: MOLT-4
# T47D = tested on: T47D
# A498 = tested on: A498
compound,measurement,setting,value
COc1c(O)cc(O)c2c(=O)cc(-c3ccccc3)oc12 [WOGONIN],GI50,PC-3,51.1 µM (inactive)
same,GI50,OVCAR-8,52.4 µM (inactive)
same,GI50,ACHN,31.4 µM (inactive)
same,GI50,HOP-62,21.7 µM (inactive)
same,GI50,OVCAR-3,24.5 µM (inactive)
same,GI50,SK-MEL-5,34.2 µM (inactive)
same,GI50,U-251,63.2 µM (inactive)
same,GI50,HCC 2998,35.2 µM (inactive)
same,GI50,MCF7,35.6 µM (inactive)
same,GI50,TK-10,60.8 µM (inactive)
same,GI50,NCI-H522,40.6 µM (inactive)
same,GI50,IGROV-1,29.4 µM (inactive)
same,GI50,HT-29,51.9 µM (inactive)
same,GI50,SR,22.1 µM (inactive)
same,GI50,NCI-H460,26.2 µM (inactive)
same,GI50,SF-268,37.9 µM (inactive)
same,GI50,A549,42.9 µM (inactive)
same,GI50,UACC-62,35.1 µM (inactive)
same,GI50,MDA-MB-435,65.5 µM (inactive)
same,GI50,SF-539,42.5 µM (inactive)
same,GI50,HCT-15,35.1 µM
same,GI50,HOP-92,> 100 µM (inactive)
same,GI50,CCRF-CEM,27 µM (inactive)
same,GI50,K562,25.1 µM (inactive)
same,GI50,SK-OV-3,77.8 µM (inactive)
same,GI50,NCI-H23,42.6 µM (inactive)
same,GI50,BT-549,55.2 µM (inactive)
same,GI50,MDA-MB-231,> 100 µM (inactive)
same,GI50,NCI-H226,40.9 µM (inactive)
same,GI50,CAKI-1,48.6 µM (inactive)
same,GI50,RPMI-8226,17.5 µM (inactive)
same,GI50,HCT-116,24.3 µM (inactive)
same,GI50,Hs-578T,18.7 µM (inactive)
same,GI50,COLO 205,64.3 µM (inactive)
same,GI50,SF-295,34.5 µM (inactive)
same,GI50,DU-145,23.6 µM (inactive)
same,GI50,EKVX,61.5 µM (inactive)
same,GI50,MDA-N,84.7 µM (inactive)
same,GI50,SN12C,90.6 µM (inactive)
same,GI50,SK-MEL-28,> 100 µM (inactive)
same,GI50,M14,69 µM (inactive)
same,GI50,UO-31,2.58 µM (inactive)
same,GI50,SNB-75,56.1 µM (inactive)
same,GI50,RXF 393,17.5 µM (inactive)
same,GI50,OVCAR-4,77.4 µM (inactive)
same,GI50,SW-620,54.1 µM (inactive)
same,GI50,Malme-3M,85.3 µM (inactive)
same,GI50,HL-60,21.5 µM (inactive)
same,GI50,SK-MEL-2,43.7 µM (inactive)
same,GI50,SNB-19,58.7 µM (inactive)
same,GI50,LOX IMVI,22.4 µM (inactive)
same,GI50,786-0,51.9 µM (inactive)
same,GI50,KM12,34 µM (inactive)
same,GI50,NCI/ADR-RES,60.5 µM (inactive)
same,GI50,UACC-257,87.9 µM (inactive)
same,GI50,OVCAR-5,49.7 µM (inactive)
same,GI50,MOLT-4,36.1 µM (inactive)
Cc1ccc(S(=O)(=O)NC(=O)Nc2ccc(C(=O)O)cc2)cc1,GI50,PC-3,> 100 µM (inactive)
same,GI50,OVCAR-8,> 100 µM (inactive)
same,GI50,ACHN,> 100 µM (inactive)
same,GI50,HOP-62,> 100 µM (inactive)
same,GI50,SK-MEL-5,> 100 µM (inactive)
same,GI50,U-251,> 100 µM (inactive)
same,GI50,MCF7,> 100 µM (inactive)
same,GI50,TK-10,> 100 µM (inactive)
same,GI50,NCI-H522,> 100 µM (inactive)
same,GI50,IGROV-1,> 100 µM (inactive)
same,GI50,HT-29,> 100 µM (inactive)
same,GI50,NCI-H460,> 100 µM (inactive)
same,GI50,SF-268,> 100 µM (inactive)
same,GI50,A549,> 100 µM (inactive)
same,GI50,UACC-62,> 100 µM (inactive)
same,GI50,SF-539,> 100 µM (inactive)
same,GI50,HCT-15,> 100 µM
same,GI50,HOP-92,> 100 µM (inactive)
same,GI50,CCRF-CEM,> 100 µM (inactive)
same,GI50,T47D,> 100 µM (inactive)
same,GI50,K562,> 100 µM (inactive)
same,GI50,SK-OV-3,> 100 µM (inactive)
same,GI50,NCI-H23,> 100 µM (inactive)
same,GI50,BT-549,> 100 µM (inactive)
same,GI50,MDA-MB-231,> 100 µM (inactive)
same,GI50,RPMI-8226,> 100 µM (inactive)
same,GI50,HCT-116,> 100 µM (inactive)
same,GI50,Hs-578T,> 100 µM (inactive)
same,GI50,COLO 205,> 100 µM (inactive)
same,GI50,SF-295,> 100 µM (inactive)
same,GI50,DU-145,> 100 µM (inactive)
same,GI50,MDA-N,> 100 µM (inactive)
same,GI50,SN12C,> 100 µM (inactive)
same,GI50,SK-MEL-28,> 100 µM (inactive)
same,GI50,M14,> 100 µM (inactive)
same,GI50,UO-31,> 100 µM (inactive)
same,GI50,SNB-75,> 100 µM (inactive)
same,GI50,RXF 393,> 100 µM (inactive)
same,GI50,OVCAR-4,> 100 µM (inactive)
same,GI50,SW-620,> 100 µM (inactive)
same,GI50,Malme-3M,> 100 µM (inactive)
same,GI50,HL-60,> 100 µM (inactive)
same,GI50,SK-MEL-2,> 100 µM (inactive)
same,GI50,SNB-19,> 100 µM (inactive)
same,GI50,LOX IMVI,> 100 µM (inactive)
same,GI50,786-0,> 100 µM (inactive)
same,GI50,KM12,> 100 µM (inactive)
same,GI50,NCI/ADR-RES,> 100 µM (inactive)
same,GI50,UACC-257,> 100 µM (inactive)
same,GI50,OVCAR-5,> 100 µM (inactive)
same,GI50,MOLT-4,> 100 µM (inactive)
O=C(O)CNn1c(SCC(=O)O)nnc(/C=C/c2c(O)ccc3ccccc23)c1=O,GI50,A498,32.7 µM (inactive)
same,GI50,PC-3,77.3 µM (inactive)
same,GI50,OVCAR-8,3.79 µM (inactive)
same,GI50,ACHN,33.8 µM (inactive)
same,GI50,HOP-62,16.1 µM (inactive)
same,GI50,OVCAR-3,22.7 µM (inactive)
same,GI50,SK-MEL-5,18.7 µM (inactive)
same,GI50,U-251,35.3 µM (inactive)
same,GI50,HCC 2998,> 100 µM (inactive)
same,GI50,MCF7,24 µM (inactive)
same,GI50,NCI-H522,29.8 µM (inactive)
same,GI50,IGROV-1,0.15 µM (active)
same,GI50,HT-29,41.9 µM (inactive)
same,GI50,SR,32.3 µM (inactive)
same,GI50,NCI-H460,4.91 µM (inactive)
same,GI50,SF-268,24.4 µM (inactive)
same,GI50,A549,44.2 µM (inactive)
same,GI50,UACC-62,21.3 µM (inactive)
same,GI50,MDA-MB-435,75.7 µM (inactive)
same,GI50,SF-539,> 100 µM (inactive)
same,GI50,HCT-15,17.6 µM
same,GI50,CCRF-CEM,3.57 µM (inactive)
same,GI50,T47D,19.5 µM (inactive)
same,GI50,K562,25.5 µM (inactive)
same,GI50,SK-OV-3,5.53 µM (inactive)
same,GI50,NCI-H23,17.1 µM (inactive)
same,GI50,BT-549,15 µM (inactive)
same,GI50,CAKI-1,29.5 µM (inactive)
same,GI50,RPMI-8226,29.8 µM (inactive)
same,GI50,HCT-116,28.8 µM (inactive)
same,GI50,Hs-578T,12.8 µM (inactive)
same,GI50,COLO 205,34.4 µM (inactive)
same,GI50,SF-295,3.89 µM (inactive)
same,GI50,DU-145,3.16 µM (inactive)
same,GI50,EKVX,14.3 µM (inactive)
same,GI50,MDA-N,48.4 µM (inactive)
same,GI50,SN12C,11.2 µM (inactive)
same,GI50,SK-MEL-28,34.3 µM (inactive)
same,GI50,M14,17.1 µM (inactive)
same,GI50,UO-31,29.4 µM (inactive)
same,GI50,OVCAR-4,14.1 µM (inactive)
same,GI50,SW-620,44.9 µM (inactive)
same,GI50,Malme-3M,40.3 µM (inactive)
same,GI50,HL-60,9.98 µM (inactive)
same,GI50,SK-MEL-2,61.8 µM (inactive)
same,GI50,SNB-19,64.7 µM (inactive)
same,GI50,LOX IMVI,7.5 µM (inactive)
same,GI50,786-0,30.3 µM (inactive)
same,GI50,KM12,31.6 µM (inactive)
same,GI50,NCI/ADR-RES,15 µM (inactive)
same,GI50,UACC-257,35.9 µM (inactive)
same,GI50,OVCAR-5,28.5 µM (inactive)
